Measurements reported in patent US11883526B2 (priority 2019, dated 2024).

Assays:
[1] = system: elderly subjects with TRD; format: in vivo, human; conditions: each dosing day
Source text: The Modified Observer's Assessment of Alertness/Sedation (MOAA/S) was used to measure treatment-emergent sedation with correlation to levels of sedation defined by the American Society of Anesthesiologists (ASA) continuum. The MOAA/S scores range from 0 (No response to painful stimulus; corresponds to ASA continuum for general anesthesia) to 5 (Readily responds to name spoken in normal tone [awake]; corresponds to ASA continuum for minimal sedation). The proportion of subjects with sedation was <4% for the esketamine group for each dosing day.

[2] = system: elderly subjects with TRD; conditions: double-blind phase
Experimental: The Clinician Administered Dissociative States Scale (CADSS) was measured prior to the start of each dose, at 40 minutes, and 1.5 hours postdose.

With CN[C@]1(c2ccccc2Cl)CCCCC1=O [esketamine, (S)-2-(2-chlorophenyl)-2-(methylamino)cyclohexanone] the “proportion of subjects with sedation (post dose MOAA/S score ≤3)” value [1] was under 4% and the “dissociative and perceptual change symptoms (CADSS) resolved by” value [2] was at most 1.5 hours postdose.
